# Laboratory results: patent US20100081723A1, “Memantine For The Treatment Of Childhood Behavioral Disorders” (priority 2004, published 2010)
# Key:
# [1] = tested on: autistic children; settings: small double-blind, placebo-controlled study; cited from earlier work
# [2] = tested on: hyperkinetic children, children with attention deficit disorder (ADD); settings: in vivo; cited from earlier work
# [3] = tested on: patients with moderate to severe dementia of the Alzheimer's type; settings: cited from earlier work
# [4] = aqueous media; cited from earlier work
# [5] = tested on: cytochrome P-450 (CYP 450) isoenzymes; settings: in vitro; cited from earlier work
# [6] = tested on: patients with neurodegenerative disorders; settings: cited from earlier work
# [7] = tested on: NMDA receptor; settings: uncompetitive antagonist; cited from earlier work
# [8] = cited from earlier work
# [9] = tested on: pediatric patients diagnosed with ADHD combined type; test: Open-label ADHD study: overall efficacy, tolerability and patient disposition; assay type: in vivo, human
# Protocol: (§1) The primary objective of this study was to provide preliminary safety and tolerability evaluations of memantine in pediatric patients with ADHD combined type. The secondary objectives of the study were to evaluate the pharmacokinetics of memantine in this patient population, and to provide preliminary evaluations of efficacy on effect based on a 8-week administration of memantine.
# (§2) Design. This clinical trial was conducted as an open-label, single center, dose-finding outpatient study assessing memantine in pediatric patients diagnosed with ADHD combined type (DSM-IV-TR™ criteria). ADHD combined type is characterized by the presence of significant inattentive and hyperactive/impulsive symptomotology.
# (§3) Dosages. Sixteen (16) outpatients with a diagnosis of ADHD combined type received treatment with memantine for a total of 8 weeks. Patients were enrolled in to two groups of 8 patients each, Cohort 1 and Cohort 2. Dose adjustments were permitted for patients experiencing dose-limiting adverse events. For Cohort 1 patients, treatment consisted of a 4 week titration period from a starting dose of 2.4 mg/day at the start of week 0, to 4.8 mg/day at the start of week 1, to 7.2 mg/day at the start of Week 2 to a maximum dose of 10 mg/day at the start of week 3, with a maintenance dose of 10 mg/day continuing to the end of Week 8. For Cohort 2 patients, treatment consisted of a 4-week titration period from a starting dose of 4.8 mg/day at the start of Week 0, to 10 mg/day at the start of Week 1, to 14.8 mg/day at the start of Week 2, to a maximum dose of 20 mg/day at the start of Week 3, with a maintenance dose of 20 mg/day continuing to the end of Week 8.
# (§4) Patients who missed 2 consecutive visits were discontinued from the study. […] The “Safety Population” consisted of all patients who took at least one dose of study medication. The “Intent-to-Treat (ITT) Population” consisted of all patients in the safety population with at least one post baseline efficacy assessment of ADHD-IV-RS or CGI-ADHD-S. ADHD-IV-RS or CGI-ADHD-S were administered 4 times per patient, once at Screening, once at baseline, once at the end of Week 4 and once at the end of Week 8. […] Those patients unable to tolerate the minimum daily dose after the Week 1 of dosing were discontinued from the study without replacement.
# Adverse events. Adverse event (AE) monitoring was performed at all study visits except Screening, including early termination. An AE is any untoward medical occurrence in a patient or clinical investigation subject administered a pharmaceutical product. It is not necessary that the AE have a causal relationship to treatment with the product.
# An AE therefore is any unfavorable and unintended sign (for example, a clinically significant abnormal laboratory finding) symptom, or disease temporally associated with the use of study medication, whether or not considered related to study medication. […] An AE occurring during the open-label treatment period is counted as a treatment-emergent AE (TEAE) if it is not present prior to the first dose of study medication or if it is present prior to the first dose of study medication but increases in severity following the first dose of study medication.
# The number (percentage) of patients with TEAEs were tabulated by body system and preferred term. Within a specific category (i.e., a specific body system or preferred term), the patient was counted only once if the patient had more than one event reported. […]
# [10] = tested on: pediatric patients diagnosed with ADHD combined type; test: Open-label study of memantine in pediatric ADHD combined type: CGI-ADHD-S; assay type: in vivo, human; settings: Cohort 2, OC analysis, patients who completed the evaluation, end of 8 weeks; 100% moderately or markedly ill at baseline
# Protocol: The Clinical Global Impression-ADHD-Severity (CGI-S) is a 7-point scale (1 [not ill] to 7 [extremely ill]) to be assessed by the Investigator at Screening (part 1.1), Baseline, and from two to eight times during Visits 3 to 10, or upon study discontinuation.
# as §2
# (§5) Patient Population. The study enrolled sixteen (16) male or female outpatients between the ages of 6 and 12 years, mean age of 8 years, diagnosed with ADHD combined type by DSM-IV-TR™ criteria based on clinical evaluation and a semi-structured interview, the Schedule for Affective Disorders and Schizophrenia for School-Age Pediatric patients-Present and Lifetime (K-SADS-PL).
# Dosages. Sixteen (16) outpatients with a diagnosis of ADHD combined type received treatment with memantine for a total of 8 weeks. Patients were enrolled in to two groups of 8 patients each, Cohort 1 and Cohort 2. Dose adjustments were permitted for patients experiencing dose-limiting adverse events. […]
# [11] = tested on: pediatric patients diagnosed with ADHD combined type; test: Open-label study of memantine in pediatric ADHD combined type: ADHD-IV-RS; assay type: in vivo, human; settings: for ADHD-IV-RS change from baseline, Week 4 (mean) / ADHD-IV-RS change from baseline, Week 8 (mean ± SD) / ADHD-IV-RS score, Week 4 (mean ± SD) / ADHD-IV-RS score, Week 8 (mean ± SD) / ADHD-IV-RS change from baseline, Week 4 (mean ± SD): ITT population
# Source text: The Attention Deficit/Hyperactivity Disorder Rating Scale, Fourth Edition-Parent Version (ADHD-IV-RS) assesses each of the 18 individual criteria symptoms of ADHD in DSM-IV-TR™ on a severity grid (0=not present, 3=severe; overall minimum score=0, maximum score=54) (DuPaul et al., ADHD Rating Scale-IV: Checklists, Norms, and Clinical Interpretations 1998. New York: The Guilford Press). Inattention symptoms comprise the odd-numbered items, and hyperactive-impulsive symptoms are represented by the even-numbered items. The scale takes approximately 10 to 15 minutes to complete. […] It is to be completed by the patient's parent or legal guardian at Screening (part 1.1), Baseline, and from two to eight times during Visits 3 to 10, or upon study discontinuation.
# as §1, §2, §5, §3, §4
# Efficacy parameters used for evaluation were the ADHD-IV-RS, CGI-ADHD-S, CCPT-II, Woodcock Johnson III reading and math fluency tests, and the Stroop test, described above.
# The primary analysis for each efficacy parameter was based on observed cases. Only patients completing the evaluation were included in the OC analysis, missing data were not imputed. A last observation carried forward (LOCF) analysis was also performed for each efficacy assessment. […]
# [12] = tested on: autistic spectrum disorders; settings: in vivo; cited from earlier work
# [13] = tested on: autism; settings: in vivo; cited from earlier work
# [14] = Cohort 1 (up to 10 mg/day), LOCF
# [15] = Cohort 2 (up to 20 mg/day), LOCF
compound,measurement,setting,value
"NC12CC3CC(CC(C3)C1)C2 [amantadine, 1-aminoadamantane]",Measures of hyperactivity and irritability,[1],statistically significant improvement
same,Effects in hyperkinetic children and children with ADD,[2],favorable effects
"CC12CC3CC(C)(C1)CC(N)(C3)C2.Cl [memantine, 1-amino-3,5-dimethyladamantane hydrochloride]","Cognitive, functional and global assessments","[3]; 2 US studies, outpatients ages 50-93, moderate to severe Alzheimer's dementia",significant improvement
same,Care dependency and global change relative to placebo,"[3]; study 9403, Latvian nursing home patients, Alzheimer's disease or vascular dementia (MMSE<10)",significant improvement
same,Solubility,[4],highly soluble
same,Inhibition of CYP 450 isoenzymes,[5],does not inhibit
same,Safety and tolerability profile,[6]; 2297 patients in 27 clinical trials,acceptable
same,Most common adverse events,"[6]; clinical trials, relatively rare","dizziness, headache, constipation, and confusion"
same,Affinity for the NMDA receptor,[7],low to moderate
same,Bioavailability after an oral dose,"[8]; adult humans, oral",100%
same,CSF/serum ratio,[8]; adult humans,0.52
same,Metabolism,[8]; adult humans,minimal
same,"Effect of food, sex or age on pharmacokinetic profile",[8]; in vivo,not affected
same,Tolerability in patients with ADHD,"[9]; 8-week open-label treatment, up to 10 or 20 mg/day",well tolerated
same,Patients discontinued for insufficient therapeutic efficacy,"[9]; Cohort 1, 8 patients, all discontinued prior to week 8",7
same,Behavior and symptomology of combined type ADHD (in words),[9]; Cohort 2 (up to 20 mg/day),demonstrated improvements
same,Patients discontinued for insufficient therapeutic efficacy,"[9]; Cohort 2, 8 patients, 4 completed the study",3
same,Efficacy after 8 weeks of treatment (in words),[9]; the 25% of patients completing the study,improvement in two efficacy parameters was observed
same,CGI-ADHD-S: patients considered borderline or markedly ill,[10],75%
same,"ADHD-IV-RS change from baseline, Week 4 (mean)",[11]; [14],−3.3
same,"ADHD-IV-RS change from baseline, Week 8 (mean ± SD)",[11]; [14],−3.8 ± 2.31
same,"ADHD-IV-RS score, Week 4 (mean ± SD)",[11]; [14],42.8 ± 8.33
same,"ADHD-IV-RS score, Week 8 (mean ± SD)",[11]; [14],40.9 ± 8.53
same,"ADHD-IV-RS change from baseline, Week 4 (mean ± SD)","[11]; Cohort 1 (up to 10 mg/day), OC",−3.5 ± 2.38
same,"ADHD-IV-RS score, Week 4 (mean ± SD)","[11]; Cohort 1 (up to 10 mg/day), OC",42.8 ± 8.33
same,"ADHD-IV-RS change from baseline, Week 4 (mean)",[11]; [15],−10.9
same,"ADHD-IV-RS change from baseline, Week 8 (mean ± SD)",[11]; [15],−9 ± 10.00
same,"ADHD-IV-RS score, Week 4 (mean ± SD)",[11]; [15],31.3 ± 13.05
same,"ADHD-IV-RS score, Week 8 (mean ± SD)",[11]; [15],32.9 ± 12.76
same,"ADHD-IV-RS change from baseline, Week 4 (mean ± SD)","[11]; Cohort 2 (up to 20 mg/day), OC",−11. ± 59.65
same,"ADHD-IV-RS change from baseline, Week 8 (mean ± SD)","[11]; Cohort 2 (up to 20 mg/day), OC",−16.5 ± 8.19
same,"ADHD-IV-RS score, Week 4 (mean ± SD)","[11]; Cohort 2 (up to 20 mg/day), OC",29.5 ± 13.32
same,"ADHD-IV-RS score, Week 8 (mean ± SD)","[11]; Cohort 2 (up to 20 mg/day), OC",22.3 ± 8.66
same,Effect on ADHD-IV-RS (in words),"[11]; Cohort 2, end of 8 weeks, OC analysis",showed improvement
Cc1nc2n(c(=O)c1CCN1CCC(c3noc4cc(F)ccc34)CC1)CCCC2 [risperidone],Adverse effects associated with treatment,[12],"weight gain, increased appetite, fatigue, drowsiness, tremor and drooling"
secretin: a synthetic form of the natural human hormone secretin developed by RepliGen for the potential treatment of autism,Autistic behavior compared to placebo,[13],did not demonstrate significant improvement
